The text below walks through data of US6534638B1, “Recombinant DNA molecules encoding aminopeptidase enzymes and their use in the preparation of vaccines against helminth infections” (priority 1992, dated 2003).

Where two headings read alike, the source gives them in different places.

The subject of test [1] is H110D aminopeptidase M-like activity. It is filed as biochemical, Haemonchus contortus. The source says:
(§1) α-amino acylpeptide hydrolase (microsomal) aminopeptidase activities in H110D preparations were characterised by assays, in solution, using L-leucine, methionine, phenylalanine, α-glutamic acid and lysine p-nitroanilides (pNA). All the amino acid p-nitroanilide substrates (except α-glutamic acid) were obtained from Sigma, Poole, Dorset UK, α-glutamic acid was from Fluka, Dorset, UK. Single hydrophobic (leucine- or phenylalanine-) and charged (α-glutamic acid-) amino acid pNA known to be substrates for mammalian aminopeptidase-M (ApM) and -A (ApA) respectively, were chosen to measure the effect of enzyme inhibitors and serum inhibition on H110D aminopeptidase activities.
(§2) Micro-ELISA plate (Dynatech Immulon 1, Virginia, USA) wells were each filled with 250 μl of either 50 mM HEPES or MOPS pH 7 plus 1-10 μl of the fraction to be assayed. The plates were then pre-incubated at 37° C. for 10 minutes prior to the addition of 10 μl of 25 mM amino acid p-nitroanilide substrate per well. The time zero optical density (OD) at 405 nm was then measured using an ELISA plate reader and the plates were then incubated at 37° C. for 15-30 minutes. The final OD reading was then taken as before and the OD change per minute per milligram of protein calculated.
(§3) The method used for the enzyme assay was as described in (a) above except that the inhibitors were added to the 250 μl of buffer plus 10 μl of 1 mg/ml ConA H110D and pre-incubated for 10 minutes at 37° C. prior to addition of the substrates (leucine-pNA or α-glutamic acid-pNA). The percentage inhibition was calculated as follows [formula]
(§4) Where x=the ΔOD/min of the enzyme with no inhibitor added and y=ΔOD/min of the enzyme plus inhibitor. Nine compounds with differing enzyme class inhibition were tested individually: Amastatin, Bestatin (metalloprotease, aminopeptidase), 1,10 phenanthroline, EDTA (metalloprotease), phosphoramidon (metalloprotease, thermolysin, collagenase), Aproptinin (serine protease), Pepstatin (aspartic protease), PMSF (serine and cysteine protease) and E64 (cysteine protease). Amastatin, bestatin, 1,10 phenanthroline, PMSF and pepstatin were obtained from Sigma, Dorset, UK. All the other inhibitors were obtained from Boehringer-Mannheim.

For test [2], the system named is H110D aminopeptidase A-like activity. In words: Inhibitor sensitivity of ConA H110D, α-glutamic acid-pNA substrate. The test is classed as biochemical, Haemonchus contortus.
From the text: as §1, §2, §3
as §4, with “Boehringer-Mannheim. Each inhibitor was used at two concentrations equal to or greater than the maximum concentrations recommended by Boehringer-Mannheim.” for “Boehringer-Mannheim.”

With `c1cnc2c(c1)ccc1cccnc12` [1, 10 phenanthroline, 1,10 phenanthroline], the “Ranking of inhibitors of H110D aminopeptidase activities” value in test [1] (5 mM) was “most effective inhibitor”. Moreover, the “PERCENTAGE INHIBITION Leucine-p-nitroanilide substrate” value in test [1] (inhibitor 1 mM, ConA H110D) came out at 78%; in test [1] (inhibitor 10 mM, ConA H110D) it was 87%. The “PERCENTAGE INHIBITION α-glutamic acid-p-nitroanilide substrate” value in test [2] (inhibitor 1 mM) was 78%; in test [2] (inhibitor 10 mM) it was 85%.
For the compound `CC(C)C[C@@H](N)[C@H](O)C(=O)N[C@H](C(=O)N[C@H](C(=O)N[C@@H](CC(=O)O)C(=O)O)C(C)C)C(C)C` [Amastatin], the “PERCENTAGE INHIBITION Leucine-p-nitroanilide substrate” value stood at 61% in test [1] (inhibitor 10 μM, ConA H110D) and 66% in test [1] (inhibitor 50 μM, ConA H110D). The “PERCENTAGE INHIBITION α-glutamic acid-p-nitroanilide substrate” value in test [2] (inhibitor 10 μM) and in test [2] (inhibitor 50 μM) was 0% in each case.
Take `CC(C)C[C@H](NC(=O)[C@@H](O)[C@H](N)Cc1ccccc1)C(=O)O` [Bestatin]: in test [1] (ConA H110D, concentration recommended by the supplier), the “Reduction of activity against leucine-p-nitroanilide” value is “approximately 70%”. The “PERCENTAGE INHIBITION Leucine-p-nitroanilide substrate” value in test [1] (inhibitor 50 μM, ConA H110D) turned out to be 63%; in test [1] (inhibitor 100 μM, ConA H110D) it was 68%. For the same compound, the entries for the “PERCENTAGE INHIBITION α-glutamic acid-p-nitroanilide substrate” value in test [2] (inhibitor 50 μM) and in test [2] (inhibitor 100 μM) were 23% and 35%, respectively.
Take `O=C(O)CN(CCN(CC(=O)O)CC(=O)O)CC(=O)O` [EDTA, ethylenediaminetetraacetic acid]: the “PERCENTAGE INHIBITION Leucine-p-nitroanilide substrate” value in test [1] (inhibitor 1 mM, ConA H110D) is on record as 8%; in test [1] (inhibitor 10 mM, ConA H110D), 16%. Also, the “PERCENTAGE INHIBITION α-glutamic acid-p-nitroanilide substrate” value is 17% in test [2] (inhibitor 1 mM) and 21% in test [2] (inhibitor 10 mM).
For the compound `CC(C)C[C@H](NP(=O)(O)O[C@@H]1O[C@@H](C)[C@H](O)[C@@H](O)[C@H]1O)C(=O)N[C@@H](Cc1c[nH]c2ccccc12)C(=O)O` [Phosphoramidon, phosphoramidon], the “PERCENTAGE INHIBITION Leucine-p-nitroanilide substrate” value in test [1] (inhibitor 10 μM, ConA H110D) came to 0.8%; in test [1] (inhibitor 50 μM, ConA H110D), 7%. In addition, the “PERCENTAGE INHIBITION α-glutamic acid-p-nitroanilide substrate” value in test [2] (inhibitor 10 μM) and in test [2] (inhibitor 50 μM) was 1% in each case.
